Here are results for four compounds from ChEMBL document CHEMBL1124313, “Benzodiazepine gastrin and brain cholecystokinin receptor ligands: L-365,260” (J Med Chem, 1989).

Assay [1] has as its target T1, Cholecystokinin receptor type A (Rattus norvegicus, UniProt P30551).
T1 sequence (P30551 whole entry): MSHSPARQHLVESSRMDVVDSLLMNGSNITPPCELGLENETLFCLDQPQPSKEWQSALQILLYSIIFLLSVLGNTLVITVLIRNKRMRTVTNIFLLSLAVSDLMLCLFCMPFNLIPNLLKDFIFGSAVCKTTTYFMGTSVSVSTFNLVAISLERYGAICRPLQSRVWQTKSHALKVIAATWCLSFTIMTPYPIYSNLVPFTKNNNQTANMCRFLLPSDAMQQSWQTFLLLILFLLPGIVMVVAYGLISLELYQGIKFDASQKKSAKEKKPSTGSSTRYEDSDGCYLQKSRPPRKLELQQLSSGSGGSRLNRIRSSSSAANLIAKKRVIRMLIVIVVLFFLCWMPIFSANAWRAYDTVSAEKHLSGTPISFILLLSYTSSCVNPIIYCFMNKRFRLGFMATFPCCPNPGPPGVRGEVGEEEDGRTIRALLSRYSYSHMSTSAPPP
Briefly: Displacement of [125 I] CCK-8 from Cholecystokinin type A receptor of rat pancreas.

Assay [2] in a line: Displacement of 125 I-gastrin from gastrin receptor of guinea pig gastric glands.

SMILES strings stand for the structures.

For `O=C(Nc1ccc(Cl)cc1)NC1N=C(c2ccccc2F)c2ccccc2NC1=O` (racemic), the half-maximal inhibitory concentration (IC50) in assay [1] was determined as 110 nM. `CCOC(=O)CN1C(=O)C(NC(=O)c2ccc(Cl)cc2)N=C(c2ccccc2F)c2ccccc21` (racemic) registered an IC50 in assay [2] of 690 nM.

In assay [1], `CN1C(=O)[C@H](NC(=O)c2ccc(Cl)cc2)N=C(c2ccccc2F)c2ccccc21` gave a half-inhibitory concentration (IC50) of 2.9 nM. The same measure, in the same setting: for `CN1C(=O)[C@@H](NC(=O)c2ccc(Cl)cc2)N=C(c2ccccc2F)c2ccccc21` the value was 0.39 nM.

One may read the IC50 as the concentration that inhibits the measured activity by half. Lower therefore signals inhibition by little substance.
